Results taken from ChEMBL document CHEMBL4138241, “Synthesis and in vitro evaluation of novel substituted isatin-propylene-1H-1,2,3-triazole-4-methylene-moxifloxacin hybrids for their anti-mycobacterial activities” (Eur J Med Chem, 2018).
In brackets after ≈: the same amount, converted by molar mass.

Tests used:
Format in all cases: functional
[1] = system: Mycobacterium tuberculosis; test: Potency index, ratio of moxifloxacin MIC to compound MIC for antimycobacterial activity against isoniazid/rifampicin/ethambutol-resistant Mycobacterium tuberculosis
[2] = system: Mycobacterium tuberculosis; test: Potency index, ratio of isoniazid MIC to compound MIC for antimycobacterial activity against isoniazid/rifampicin/ethambutol-resistant Mycobacterium tuberculosis
[3] = system: Mycobacterium tuberculosis; test: Antimycobacterial activity against isoniazid/rifampicin/ethambutol-resistant Mycobacterium tuberculosis after 3 days by rapid direct susceptibility test; conditions: 72 h
[4] = system: Mycobacterium tuberculosis; test: Potency index, ratio of rifampicin MIC to compound MIC for antimycobacterial activity against isoniazid/rifampicin/ethambutol-resistant Mycobacterium tuberculosis

Row | Compound | MIC [3] [µg/mL] | further results
1 | CO/N=C1/C(=O)N(CCCn2cc(CN3CCC[C@@H]4CN(c5c(F)cc6c(=O)c(C(=O)O)cn(C7CC7)c6c5OC)C[C@@H]43)nn2)c2ccc(F)cc21 | 0.06 (≈ 0.0837 µM) | Ratio [1]: 2 - 2048; Ratio [2]: 2 - 2048; Ratio [4]: 2 - 2048
2 | COc1c(N2C[C@H]3CCCN(Cc4cn(CCCN5C(=O)/C(=N/O)c6cc(F)ccc65)nn4)[C@H]3C2)c(F)cc2c(=O)c(C(=O)O)cn(C3CC3)c12 | 0.25 (≈ 0.356 µM) | 
3 | COc1c(N2C[C@H]3CCCN(Cc4cn(CCCN5C(=O)/C(=N/O)c6cc(C)ccc65)nn4)[C@H]3C2)c(F)cc2c(=O)c(C(=O)O)cn(C3CC3)c12 | 2 (≈ 2.86 µM) | 
4 | COc1c(N2C[C@H]3CCCN(Cc4cn(CCCN5C(=O)C(=O)c6cc(F)ccc65)nn4)[C@H]3C2)c(F)cc2c(=O)c(C(=O)O)cn(C3CC3)c12 | 0.25 (≈ 0.364 µM) | 
5 | CO[C@H]1/C=C/O[C@@]2(C)Oc3c(C)c(O)c4c(O)c(c(/C=N/N5CCN(C)CC5)c(O)c4c3C2=O)NC(=O)/C(C)=C\C=C\[C@H](C)[C@H](O)[C@@H](C)[C@@H](O)[C@@H](C)[C@H](OC(C)=O)[C@@H]1C [RIFAMPIN] | 32 (≈ 38.9 µM) | 
6 | CO/N=C1/C(=O)N(CCCn2cc(CN3CCC[C@@H]4CN(c5c(F)cc6c(=O)c(C(=O)O)cn(C7CC7)c6c5OC)C[C@@H]43)nn2)c2ccccc21 | 0.25 (≈ 0.358 µM) | 
7 | CCO/N=C1/C(=O)N(CCCn2cc(CN3CCC[C@@H]4CN(c5c(F)cc6c(=O)c(C(=O)O)cn(C7CC7)c6c5OC)C[C@@H]43)nn2)c2ccc(F)cc21 | 0.12 (≈ 0.164 µM) | 
8 | NNC(=O)c1ccncc1 [ISONIAZID] | > 128 | 
9 | COc1c(N2C[C@H]3CCCN(Cc4cn(CCCN5C(=O)C(=O)c6cc(C)ccc65)nn4)[C@H]3C2)c(F)cc2c(=O)c(C(=O)O)cn(C3CC3)c12 | 1 (≈ 1.46 µM) | 
10 | CO/N=C1/C(=O)N(CCCn2cc(CN3CCC[C@@H]4CN(c5c(F)cc6c(=O)c(C(=O)O)cn(C7CC7)c6c5OC)C[C@@H]43)nn2)c2ccc(C)cc21 | 0.5 (≈ 0.701 µM) | 
11 | COc1c(N2C[C@@H]3CCCN[C@@H]3C2)c(F)cc2c(=O)c(C(=O)O)cn(C3CC3)c12 [MOXIFLOXACIN] | 0.12 (≈ 0.299 µM) | 
12 | COc1c(N2C[C@H]3CCCN(Cc4cn(CCCN5C(=O)/C(=N/O)c6ccccc65)nn4)[C@H]3C2)c(F)cc2c(=O)c(C(=O)O)cn(C3CC3)c12 | 1 (≈ 1.46 µM) | 
13 | CCO/N=C1/C(=O)N(CCCn2cc(CN3CCC[C@@H]4CN(c5c(F)cc6c(=O)c(C(=O)O)cn(C7CC7)c6c5OC)C[C@@H]43)nn2)c2ccc(C)cc21 | 0.25 (≈ 0.344 µM) | 
14 | CCO/N=C1/C(=O)N(CCCn2cc(CN3CCC[C@@H]4CN(c5c(F)cc6c(=O)c(C(=O)O)cn(C7CC7)c6c5OC)C[C@@H]43)nn2)c2ccccc21 | 0.25 (≈ 0.351 µM) | 
15 | COc1c(N2C[C@H]3CCCN(Cc4cn(CCCN5C(=O)C(=O)c6ccccc65)nn4)[C@H]3C2)c(F)cc2c(=O)c(C(=O)O)cn(C3CC3)c12 | 1 (≈ 1.49 µM) | 
